This note sets out measurements from patent publication US20240254086A1, “(HETERO)ARYLAMIDE COMPOUND AND PEST CONTROL AGENT” (Nippon Soda Co., Ltd., priority 2021, published 2024).

A word on the mortality: it is the percentage killed.

Common to all, as to assay type: in vivo
In one assay the test system is Mythimna separata. As to the kind of experiment: Efficacy test against Mythimna separata (maize leaf dip). The conditions noted are these: 125 ppm by mass, maize leaf pieces immersed 30 seconds, second-instar larvae, 6 days after release, 25° C. The text has this: (§1) 5 parts by mass of the compound of the present invention, 93.6 parts by mass of dimethylformamide, and 1.4 parts by mass of polyoxyethylene alkylaryl ether were mixed and dissolved to prepare an emulsion (I) containing 5% of an active ingredient.
Maize leaf pieces were immersed in the diluent solution for 30 seconds. These maize leaf pieces were placed in a petri dish, and five second-instar larvae of Mythimna separata were released to prepare an emulsion-treated section.
Similarly, the solvent control solution was diluted with water at the same ratio as that of the emulsion (I), and maize leaf pieces were immersed therein for 30 seconds. These maize leaf pieces were placed in a petri dish, and five second-instar larvae of Mythimna separata were released to prepare a solvent control section.
The petri dishes were left to stand in a thermostatic chamber at a temperature of 25° C. and a humidity of 60% during the test period. Mortality was evaluated at a time of passage of 6 days from the release of the insects, and the insecticidal rate in the emulsion-treated section was calculated, based on the following expression. At the same time, the food consumptions in the emulsion-treated section and the solvent control section were measured. The test was repeated twice.
Insecticidal rate (%)=(Number of dead insects/Number of test insects)×100

Another assay concerns Tetranychus kanzawai. Briefly: Efficacy test against Tetranychus kanzawai (spray on kidney bean). The conditions noted are these: 240 h, 125 ppm by mass, sprayed on kidney bean plants, adult females, 10 days after spraying, 25° C., read-out: insecticical rate against Tetranychus kanzawai (mortality of adults).
Excerpt: as §1
The primary leaves of Kidney bean plants were inoculated with 5 adult female Tetranychus kanzawai from Okayama Prefecture. […] This drug was sprayed on the Kidney bean plants and air-dried. The kidney bean seedlings were then placed in a thermostatic chamber with a temperature of 25° C. and humidity of 65%. Mortality of the adult […] was investigated after 10 days had passed from the spraying. The test was repeated twice.

A further assay deals with Tetranychus urticae. Briefly: Efficacy test against Tetranychus urticae (spray on green beans). The conditions noted are these: 240 h, 125 ppm by mass, sprayed on green beans, adult females, 10 days after spraying, 25° C., read-out: insecticical rate against Tetranychus urticae (mortality of adults). How it is done: as §1
Seedlings of green beans were grown in 3-inch pots, and 8 adult female Tetranychus urticae from Aomori Prefecture were inoculated onto the first leaves. […] The diluent solution was sprayed on the green beans. The green beans were then placed in a thermostatic chamber with a temperature of 25° C. and humidity of 65%. Mortality of the adult […] was investigated after 10 days had passed from the spraying. The test was repeated twice.

For `CCSCCC(CC)(CC)CNC(=O)c1cc(C#N)c(-c2ccc(OC(F)(F)F)cc2OC)nc1C` [A-27], the “Insecticidal rate against Mythimna separata” value in the assay on Mythimna separata came to 90%.

On to `CCSCCC(CC)(CC)CNC(=O)c1cc(C#N)c(-c2ccc(C(F)(F)F)cc2)nc1C` [A-78, 5-Cyano-N-[2,2-diethyl-4-(ethylthio)butyl]-2-methyl-6-[4-(trifluoromethyl)phenyl]nicoti namide], for which the mortality at 125 ppm in the assay with Tetranychus kanzawai and in the assay with Tetranychus urticae was ≥ 90% throughout.

In the case of `CCSCCC(C)(C)CN(C)C(=O)c1cc(C#N)c(-c2ccc(C(F)(C(F)(F)F)C(F)(F)F)cc2)nc1C` [A-105], the “Insecticidal rate against Mythimna separata” value in the assay with Mythimna separata came to 90%.

For `CCSCC(C)(C)CN(C)C(=O)c1cc(C#N)c(-c2ccc(C(F)(F)F)cc2)nc1C` [A-146, 5-Cyano-N-[3-(ethylthio)-2,2-dimethylpropyl]-N,2-dimethyl-6-[4-(trifluoromethyl)pheny 1]nicotinamide], the mortality at 125 ppm in the assay on Tetranychus kanzawai and with Tetranychus urticae was ≥ 90% in each case. For the molecule `CCSCC(C)(C)CNC(=O)c1cc(C#N)c(-c2ccc(C(F)(F)F)cc2)nc1C` [A-147, 5-Cyano-N-[3-(ethylthio)-2,2-dimethylpropyl]-2-methyl-6-[4-(trifluoromethyl)phenyl]ni cotinamide], the mortality at 125 ppm in the assay on Tetranychus kanzawai and in the assay on Tetranychus urticae was ≥ 90% each time.

On to `CCSCCC(CC)(CC)CNC(=O)c1cc(C#N)c(-c2ccc(C(F)(F)F)cc2)cc1C(F)(F)F` [C-7, 2-Cyano-N-[2,2-diethyl-4-(ethylthio)butyl]-4′,5-bis(trifluoromethyl)-(1,1′-biphenyl)-4-ca rboxamide], for which the mortality at 125 ppm in the assay with Tetranychus kanzawai and with Tetranychus urticae was ≥ 90% each time.
